Laboratory results reported in US10888544B2, “Methods for treating Gaucher disease” (Genzyme Corporation, priority 2017, dated 2021).

Experiment: Safety evaluation in the hepatic impairment single dose study (Example 1)
Assay type: in vivo, human
Description: The safety evaluation was based upon the review of the individual values (clinically significant abnormalities) and descriptive statistics (summary tables). All safety analyses were performed using the safety population and were based on the on-treatment phase (defined as the time from investigational medicinal product [IMP] administration up to Day 3 visit, inclusive). For laboratory, vital signs, and ECG data, potentially clinically significant abnormalities (PCSAs) were analyzed using the 24 May 2014 version of the PCSA list. Electrocardiogram parameters were obtained from automatic reading of 12-lead ECGs and were analyzed as raw parameter values and change from baseline. For vital signs, raw data and changes from baseline were summarized using descriptive statistics by population group and time point. All individual data for biochemistry, hematology, and qualitative urinary tests were listed.
Adverse events were coded according to the Medical Dictionary for Regulatory Activities (MedDRA v.19.1) and classified into predefined standard categories according to chronological criteria: • Pretreatment adverse events (AEs), defined as AEs that occurred, worsened (according to Investigator opinion), or became serious during the pretreatment phase (defined as the time between the signature of the informed consent and IMP administration [excluded]); • Treatment-emergent AEs (TEAEs), defined as AEs that occurred, worsened, or became serious during the on-treatment phase; • Posttreatment AEs, defined as AEs that occurred, worsened, or became serious during the posttreatment phase (defined as the time after Day 3 visit through completion of EOS).
All AEs reported in the study were listed and sorted by subject, onset date and time. The number and percentage of subjects with TEAEs were listed by population group, primary system-organ class (SOC), preferred term (PT), and AE diagnosis.

[1] = hepatic impairment study, single dose

In the case of `CCCCCCCC(=O)N[C@H](CN1CCCC1)[C@H](O)c1ccc2c(c1)OCCO2` [eliglustat, N-((1R,2R)-1-(2,3-dihydrobenzo[b][1,4]dioxin-6-yl)-1-hydroxy-3-(pyrrolidin-1-yl)propan-2-yl)octanamide], the “Total number of mild TEAEs observed” value (all groups (healthy, mild HI, moderate HI), in 5 subjects, single dose) is reported as 6, the “Deaths or other significant AEs” value [1] is reported as “no deaths or other significant AEs” and the Serious adverse events [1] is reported as “No serious adverse events were reported”. For the same molecule, the “Treatment emergent PCSA (laboratory values, vital signs, ECGs)” value [1] was “no treatment emergent PCSA that were clinically relevant” and the “TEAEs considered related to study drug by the investigator” value (in 3 subjects: dysgeusia in 2 moderate HI subjects, nausea and headache in 1 healthy subject) was “Four”.
